Experimental data from paper PMC9116245, “New 1,2,3-triazole linked ciprofloxacin-chalcones induce DNA damage by inhibiting human topoisomerase I& II and tubulin polymerization” (Journal of Enzyme Inhibition and Medicinal Chemistry, 2022).
Like-named read-outs stand apart in the source and are kept apart here.

Legend:
[1] = test system: A498; assay type: cell-based; conditions: Homo sapiens
[2] = test system: MOLT-4; assay type: cell-based; conditions: Homo sapiens
[3] = test system: OVCAR-8; assay type: cell-based; conditions: Homo sapiens
[4] = test system: NCI/ADR-RES; assay type: cell-based; conditions: Homo sapiens
[5] = test system: RPMI-8226; assay type: cell-based
[6] = test system: TK-10; assay type: cell-based; conditions: Homo sapiens
[7] = test system: 59 human cancer cell-lines; assay type: cell-based
[8] = test system: T-47D; assay type: cell-based; conditions: Homo sapiens, T47D
[9] = test system: NCI-H522; assay type: cell-based; conditions: Homo sapiens
[10] = test system: IGROV1; assay type: cell-based; conditions: Homo sapiens, IGROV-1
[11] = test system: SW-620; assay type: cell-based; conditions: Homo sapiens
[12] = test system: HOP-62; assay type: cell-based; conditions: Homo sapiens
[13] = test system: MDA-MB-231/ATCC; assay type: cell-based
[14] = test system: SK-OV-3; assay type: cell-based; conditions: Homo sapiens
[15] = test system: SF-268; assay type: cell-based; conditions: Homo sapiens
[16] = test system: BT-549; assay type: cell-based; conditions: Homo sapiens
[17] = test system: MDA-MB-468; assay type: cell-based; conditions: Homo sapiens
[18] = test system: UACC-62; assay type: cell-based; conditions: Homo sapiens
[19] = test system: SK-MEL-28; assay type: cell-based; conditions: Homo sapiens
[20] = test system: PC-3; assay type: cell-based; conditions: Homo sapiens
[21] = test system: CCRF-CEM; assay type: cell-based; conditions: Homo sapiens
[22] = test system: HCT-116; assay type: cell-based, human
[23] = test system: HOP-92; assay type: cell-based; conditions: Homo sapiens
[24] = test system: LOX IMVI; assay type: cell-based; conditions: Homo sapiens
[25] = test system: MDA-MB-435; assay type: cell-based; conditions: Homo sapiens
[26] = test system: SK-MEL-2; assay type: cell-based; conditions: Homo sapiens
[27] = test system: HT29; assay type: cell-based; conditions: Homo sapiens
[28] = test system: OVCAR-4; assay type: cell-based; conditions: Homo sapiens
[29] = test system: Human Embryonic Kidney (HEK) 293 cells; assay: Cytotoxicity assay with non-cancerous cells (MTS); assay type: cell-based; conditions: HEK293 versus cancer cells
Procedure: To evaluate the selectivity and safety profile of the synthesised CP hybrids, a cytotoxicity experiment of compounds 4a, 4b, 4e, 4i, and 4j was performed using normal Human Embryonic Kidney (HEK) 293 cells.
To evaluate the selectivity and safety profile of the synthesised ciprofloxacin-chalcone hybrids, a cytotoxicity experiment was performed using a non-cancerous cell line. Briefly, Human Embryonic Kidney (HEK) 293 cells (ATCC, Manassas, VA, USA) were cultured in a Dulbecco’s Modified Eagle Medium (DEMEM) supplemented with 1 mM sodium pyruvate, 10 mM HEPES buffer solution, 2 mM GlutaMAX (Gibco, Grand Island, NY, USA), 50 µg/mL gentamycin sulphate (Dubuque, IA, USA), and 10% foetal bovine serum (ThermoFisher Scientific, USA). Cells were seeded in 96-well plates and incubated overnight in a humidified atmosphere with 5% CO2 at 37 °C. After 24 h, cells were treated with different concentrations (0.01–100 µM) of ciprofloxacin-chalcone hybrids. Also, DMSO and doxorubicin were used as negative and positive controls, respectively. After 72 h, old medium containing treatments were removed, and fresh medium and MTS reagents (CellTiter 96® AQueous One Solution Cell Proliferation Assay, Promega, Madison, WI, USA) were added. […] After 2 h, the absorbance was measured at 490 nm using a Spectra Max plus 384 Microplate reader (Molecular Devices, Sunnyvale, CA, USA) [74]. […]

[30] = test system: NCI-H23; assay type: cell-based; conditions: Homo sapiens
[31] = test system: EKVX; assay type: cell-based; conditions: Homo sapiens
[32] = test system: CAKI-1; assay type: cell-based; conditions: Homo sapiens
[33] = test system: HCT-15; assay type: cell-based; conditions: Homo sapiens
[34] = test system: Melanoma (cell line name not given); assay type: cell-based; conditions: Homo sapiens, under Melanoma
[35] = test system: HS 578T; assay type: cell-based
[36] = test system: OVCAR-5; assay type: cell-based; conditions: Homo sapiens
[37] = test system: KM12; assay type: cell-based; conditions: Homo sapiens
[38] = test system: MALME-3M; assay type: cell-based; conditions: Homo sapiens
[39] = test system: SF-295; assay type: cell-based; conditions: Homo sapiens
[40] = test system: SF-539; assay type: cell-based; conditions: Homo sapiens
[41] = test system: UO-31; assay type: cell-based; conditions: Homo sapiens
[42] = test system: DU-145; assay type: cell-based; conditions: Homo sapiens
[43] = read-out: LC50 (the source's name)
[44] = panel mean graph midpoint, Units Molar

SMILES: COc1cc(/C=C/C(=O)c2ccc(-n3cc(CN4CCN(c5cc6c(cc5F)c(=O)c(C(=O)O)cn6C5CC5)CC4)nn3)cc2)cc(OC)c1OC [Compound 4j, (E)-1-cyclopropyl-6-fluoro-4-oxo-7–(4-((1–(4-(3-(3,4,5-trimethoxyphenyl)acryloyl)phenyl)-1H-1,2,3-triazol-4-yl)methyl)piperazin-1-yl)-1,4-dihydroquinoline-3-carboxylic acid]
- GI50 [1]: 4.18 µM
- CC50 [1, 43]: 39.8 µM
- GI50 [2]: 3.32 µM
- CC50 [2, 43]: > 100 µM
- GI50 [3]: 4.03 µM
- CC50 [3, 43]: > 100 µM
- GI50 [4]: > 100 µM
- CC50 [4, 43]: > 100 µM
- GI50 ([5]; Homo sapiens, RPMI-8226, RPMI-8226): 0.401 µM
- CC50 ([5]; Homo sapiens, RPMI-8226, read-out: LC50 (the source's name)): > 100 µM
- GI50 ([5]; RPMI-8226): 0.4 µM
- GI50 [6]: 5.61 µM
- CC50 [6, 43]: > 100 µM
- GI50 ([7]; Homo sapiens, range over all cancer cell lines): 0.21 to 21.1 µM
- Log10GI50 _MID [7, 44]: -5.58
- Log10LC50 _MID [7, 44]: -4.06
- Log10TGI _MID [7, 44]: -4.58
- GI50 [8]: 3.16 µM
- CC50 [8, 43]: > 100 µM
- GI50 [9]: 4.25 µM
- LC50 [9]: > 100 µM
- GI50 [10]: 1.64 µM
- GI50 [11]: 1.37 µM
- CC50 [11, 43]: > 100 µM
- GI50 [12]: 2.49 µM
- CC50 [12, 43]: > 100 µM
- GI50 ([13]; Homo sapiens, MDA-MB-231, MDA-MB231/ATCC): 3.2 µM
- CC50 ([13]; Homo sapiens, MDA-MB-231/ATCC, read-out: LC50 (the source's name)): > 100 µM
- TGI ([13]; MDA-MB231/ATCC): >100 µM
- TGI ([13]; MDA-MB-231/ATCC): > 1.00E-4 Molar
- GI50 [14]: 7.09 µM
- CC50 [14, 43]: > 100 µM
- GI50 [15]: 3.09 µM
- CC50 [15, 43]: > 100 µM
- GI50 [16]: 1.71 µM
- GI50 [17]: 1.96 µM
- CC50 [17, 43]: > 100 µM
- GI50 [18]: 2.83 µM
- CC50 [18, 43]: 57.7 µM
- GI50 [19]: 2.77 µM
- LC50 [19]: 78.9 µM
- GI50 [20]: 2.54 µM
- CC50 [20, 43]: > 100 µM
- GI50 [21]: 2.63 µM
- CC50 [21, 43]: > 100 µM
- GI50 ([22]; HCT-116): 0.21 µM
- GI50 ([22]; Homo sapiens, HCT-116, HCT-116): 0.206 µM
- IC50 ([22]; Homo sapiens, HCT-116, HCT116, SRB assay): 0.2 µM
- GI50 [23]: 11.7 µM
- CC50 [23, 43]: > 100 µM
- GI50 [24]: 1.57 µM
- CC50 [24, 43]: > 100 µM
- GI50 [25]: 1.49 µM
- CC50 [25, 43]: > 100 µM
- GI50 [26]: 21.1 µM
- CC50 [26, 43]: > 100 µM
- GI50 ([27]; HT-29): 1.24 µM
- CC50 ([27]; HT-29, read-out: LC50 (the source's name)): > 100 µM
- GI50 [28]: 3.94 µM
- CC50 [28, 43]: 39.6 µM
- selectivity index compared with Doxorubicin [29]: six-fold better
- GI50 [30]: 2.97 µM
- CC50 [30, 43]: > 100 µM
- GI50 [31]: 4.24 µM
- CC50 [31, 43]: > 100 µM
- GI50 [32]: 5.1 µM
- CC50 [32, 43]: 51.7 µM
- GI50 [33]: 2.25 µM
- CC50 [33, 43]: > 100 µM
- GI50 [34]: 1.73 µM
- TGI ([35]; HS 578 T): >100 µM
- TGI ([35]; HS 578T): > 1.00E-4 Molar
- GI50 ([35]; Homo sapiens, HS 578T): 3.91 µM
- CC50 ([35]; Homo sapiens, HS 578T, read-out: LC50 (the source's name)): > 100 µM
- GI50 [36]: 3.7 µM
- CC50 [36, 43]: > 100 µM
- GI50 [37]: 1.57 µM
- CC50 [37, 43]: > 100 µM
- GI50 [38]: 2.59 µM
- CC50 [38, 43]: > 100 µM
- GI50 [39]: 2.91 µM
- CC50 [39, 43]: > 100 µM
- GI50 [40]: 1.91 µM
- CC50 [40, 43]: 10.3 µM
- GI50 [41]: 1.73 µM
- CC50 [41, 43]: 30.5 µM
- GI50 [42]: 3.67 µM
- LC50 (lethal concentration 50%) [42]: > 100 µM
